Values of other authors, collected in patent publication US4968506A, “Pharmaceutical dosage with core of N-acetyl cystein” (Lejus Medical Aktienbolag, priority 1988, dated 1990).

Test system: mucous membrane in the stomach
Conditions: N-acetyl cysteine

Q: Which reported side effects does the source give for `CC(=O)N[C@@H](CS)C(=O)O` [N-Acetyl cysteine, N-acetyl cysteine] here?
A: The reported side effects was “irritating effect on the mucous membrane in the stomach”.
